Test [1] has as its target Cannabinoid receptor 1 (Rattus norvegicus) (UniProt P20272). The test is described as follows: Displacement of [3H]CP55940 from rat brain membrane CB1 receptor at 10 uM incubated for 3 hrs by scintillation counter analysis relative to control. The format is cell membranes. Background: In a radioligand displacement assay an active substance lowers the binding of a labelled ligand.

Test [2] has as its target T1, Cannabinoid receptor 2 (Homo sapiens, UniProt P34972).
Description: Agonist activity at human CB2 receptor stably expressed in HEK293 cells assessed as induction of beta-arrestin 2 recruitment incubated for 2 hrs by luminescence based assay
Test [3] addresses T1, Cannabinoid receptor 2. This is another data set of the same source.
Test [4] has as its target T1, Cannabinoid receptor 2. The test is described as follows: Agonist activity at human CB2 receptor stably expressed in HEK293 cells assessed as induction of beta-arrestin 2 recruitment at 10 uM incubated for 2 hrs by luminescence based assay relative to CP55940. The conditions noted are these: filed as agonist. The format is functional, cell-based.
For test [5], the target named is T1, Cannabinoid receptor 2. The source holds these as a separate data set.
Description: Displacement of [3H]CP55940 from human CB2 receptor expressed in HEK293 cell membrane incubated for 3 hrs by scintillation counter analysis
Test [6] addresses T1, Cannabinoid receptor 2. As to the kind of experiment: Agonist activity at human CB2 receptor stably expressed in CHO-K1 cells co-expressing Galphaq16 by Fluo-4AM dye based calcium mobilization assay relative to CP55940. The format is functional, cell-based. (In general: A change in cytosolic calcium serves as a functional read-out for many receptors and channels.)
Test [7] addresses T2, Cholinesterase (Homo sapiens, UniProt P06276).
Test [8] addresses T3, Acetylcholinesterase (Homo sapiens, UniProt P22303).
Test [9] has as its target T2, Cholinesterase. This is another data set of the same source.
Test [10] concerns the target T1, Cannabinoid receptor 2. As to the kind of experiment: biochemical.
Description: Displacement of [3H]CP55940 from human CB2 receptor stably expressed in HEK293 cells by Cheng-Prusoff equation analysis
In test [11] the test system is Mus musculus. The test is described as follows: Synergistic neuroprotective activity against amyloid beta (25 to 35) induced Alzheimer's disease Swiss mouse model assessed as combination index at 0.1 to 1 mg/kg, ip administered once daily for day 1 to day 7 […] and measured on day 9 and 10 in presence of 2-benzyl-N,N-diethyl-1-isopentyl-1H-benzo[d]imidazole-5-carboxamide by step-through passive avoidance test. It counts as functional. As to conditions: dose 0.1-1 mg/kg.

Test [12] deals with Mus musculus. As to the kind of experiment: Synergistic neuroprotective activity against amyloid beta (25 to 35) induced Alzheimer's disease Swiss mouse model assessed as combination index at 0.1 mg/kg, ip administered once daily for day 1 to day 7 […] and measured on day 8 in presence of 2-benzyl-N,N-diethyl-1-isopentyl-1H-benzo[d]imidazole-5-carboxamide by spontaneous alternation performance test. It counts as functional.

Test [13] deals with T3, Acetylcholinesterase. This is another data set of the same source.
Test [14] has as its target T1, Cannabinoid receptor 2. As to the kind of experiment: Displacement of [3H]CP55940 from human CB2 receptor expressed in HEK293 cell membrane at 10 uM incubated for 3 hrs by scintillation counter analysis relative to control. The format is cell membranes.

“And” between values parts separate entries of the source, which are not always exact repeats. Equal entries are not always repeated. Some results are limits rather than exact numbers.

Sequence of Cannabinoid receptor 1 (Rattus norvegicus) (P20272 whole entry): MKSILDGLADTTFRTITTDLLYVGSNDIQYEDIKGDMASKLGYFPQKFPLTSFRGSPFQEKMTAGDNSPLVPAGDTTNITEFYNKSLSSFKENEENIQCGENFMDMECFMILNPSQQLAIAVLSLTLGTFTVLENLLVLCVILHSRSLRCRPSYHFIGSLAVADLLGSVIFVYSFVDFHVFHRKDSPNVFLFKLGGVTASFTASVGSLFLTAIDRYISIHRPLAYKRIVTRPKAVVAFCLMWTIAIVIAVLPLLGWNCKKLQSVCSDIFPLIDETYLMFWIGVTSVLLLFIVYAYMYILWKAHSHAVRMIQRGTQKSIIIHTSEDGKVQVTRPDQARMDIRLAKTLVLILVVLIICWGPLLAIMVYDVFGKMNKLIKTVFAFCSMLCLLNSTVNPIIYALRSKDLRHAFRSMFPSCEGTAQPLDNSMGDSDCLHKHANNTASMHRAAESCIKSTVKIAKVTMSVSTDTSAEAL
T1 sequence (P34972 whole entry): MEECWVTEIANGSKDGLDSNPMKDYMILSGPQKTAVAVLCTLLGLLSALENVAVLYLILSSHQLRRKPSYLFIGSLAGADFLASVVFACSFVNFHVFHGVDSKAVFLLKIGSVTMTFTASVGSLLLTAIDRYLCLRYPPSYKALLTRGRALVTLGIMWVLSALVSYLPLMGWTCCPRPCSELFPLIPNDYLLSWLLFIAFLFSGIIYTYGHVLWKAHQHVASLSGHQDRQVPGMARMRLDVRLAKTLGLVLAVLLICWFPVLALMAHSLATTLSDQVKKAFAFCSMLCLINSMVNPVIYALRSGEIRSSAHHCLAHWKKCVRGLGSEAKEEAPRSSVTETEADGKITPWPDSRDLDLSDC
T3 sequence (P22303 whole entry): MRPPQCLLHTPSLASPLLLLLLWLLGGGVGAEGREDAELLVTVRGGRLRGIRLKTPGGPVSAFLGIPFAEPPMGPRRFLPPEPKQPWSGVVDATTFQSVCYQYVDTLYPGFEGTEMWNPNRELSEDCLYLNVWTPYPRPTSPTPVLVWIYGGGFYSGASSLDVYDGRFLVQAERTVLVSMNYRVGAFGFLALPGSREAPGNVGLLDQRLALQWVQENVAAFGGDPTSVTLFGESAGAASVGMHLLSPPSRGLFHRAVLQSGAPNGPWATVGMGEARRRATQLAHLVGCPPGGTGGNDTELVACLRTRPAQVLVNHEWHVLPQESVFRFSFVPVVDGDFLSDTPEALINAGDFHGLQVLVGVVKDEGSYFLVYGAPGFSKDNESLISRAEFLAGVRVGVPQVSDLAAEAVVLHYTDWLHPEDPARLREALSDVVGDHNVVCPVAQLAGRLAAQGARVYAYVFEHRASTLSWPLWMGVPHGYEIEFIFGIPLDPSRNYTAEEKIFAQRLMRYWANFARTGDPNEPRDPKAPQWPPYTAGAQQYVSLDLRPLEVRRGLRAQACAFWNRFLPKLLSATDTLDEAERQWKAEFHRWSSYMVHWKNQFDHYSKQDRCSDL
T2 sequence (P06276 whole entry): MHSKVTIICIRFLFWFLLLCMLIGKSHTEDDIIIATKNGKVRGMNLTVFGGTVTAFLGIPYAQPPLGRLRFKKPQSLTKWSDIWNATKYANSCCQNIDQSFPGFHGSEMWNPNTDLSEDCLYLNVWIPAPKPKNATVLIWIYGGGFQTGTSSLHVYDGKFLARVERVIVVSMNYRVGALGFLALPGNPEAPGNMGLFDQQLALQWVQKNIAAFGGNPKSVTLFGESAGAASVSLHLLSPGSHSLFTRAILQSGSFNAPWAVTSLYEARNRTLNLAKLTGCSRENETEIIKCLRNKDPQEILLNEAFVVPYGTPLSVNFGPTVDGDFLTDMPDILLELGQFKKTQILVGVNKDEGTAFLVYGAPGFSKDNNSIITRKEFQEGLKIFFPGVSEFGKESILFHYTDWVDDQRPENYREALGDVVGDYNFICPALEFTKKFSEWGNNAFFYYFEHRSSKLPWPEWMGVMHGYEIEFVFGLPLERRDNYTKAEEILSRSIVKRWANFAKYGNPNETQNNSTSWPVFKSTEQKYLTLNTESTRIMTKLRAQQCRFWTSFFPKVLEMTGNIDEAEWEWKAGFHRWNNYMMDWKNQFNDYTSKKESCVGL

In general, EC50 refers to the midpoint of the concentration-response curve. A lower EC50 goes with an effect from little substance. As a reminder, the Emax is the greatest response seen or fitted, relative to the assay's reference. Usually IC50 stands for the midpoint of a concentration-inhibition curve. Regarding `CCN(CC)C(=O)c1ccc2c(c1)nc(Cc1ccc(OC(=O)N(C)C)cc1)n2CCC(C)C`, the Activity in test [1] was less than 10%. For the same compound, the 50% effective concentration (EC50) is 82 nM in test [2] and 244 nM in test [3]. In addition, the Emax in [4] came to 79%; in test [6] (filed as agonist), 42%. The 50% inhibitory concentration (IC50) in [5] is 780 nM; in test [7], 620 nM; in test [8], 8660 nM.

Compound `CCN(CC)C(=O)c1ccc2c(c1)nc(Cc1ccc(OC(=O)NCc3ccccc3)cc1)n2CCC(C)C` showed an Activity in test [1] of less than 10%. The same compound returned an EC50 in test [3] of 7710 nM. Besides, the IC50 was 11000 nM in test [5]; 190 nM in test [7]; 4500 nM and 3980 nM in test [8]. The Emax in [6] worked out at 22%.

As usually defined, the Ki is a dissociation constant, usually derived from enzyme kinetics or from competition with a known ligand. The low end stands for tighter binding, the high end for weaker binding. In [9], `NCCOCCOc1ccc(-c2cc(=O)c3ccccc3o2)cc1` displayed an IC50 of 13400 nM. In [10], this compound yielded a Ki of 20 nM.

In test [1], `CCOc1ccc(Cc2nc3cc(OC(=O)NC4CC4)ccc3n2CCC(C)C)cc1` came in with an Activity of 22%. For the same compound, the IC50 in [5] is 1010 nM; in [7] it was 1350 nM; in test [8], greater than 25100 nM.

Consider `CCN(CC)C(=O)c1ccc2c(c1)nc(Cc1ccc(OC(=O)N(C)c3ccccc3)cc1)n2CCC(C)C`, for which the Activity in test [1] came to 25%. Also, the IC50 in [5] was determined as 3850 nM; in test [7], 10100 nM; in [8], 3460 nM.

In turn, `Cc1cc([N+](=O)[O-])c2oc(-c3ccc(OCCOCCNC(=O)OC(C)(C)C)cc3)cc(=O)c2c1` gave an IC50 in test [9] of 1600 nM. In addition, the CI in [11] came out at 0.65; in test [12], 0.49. Further, in test [10], the inhibitory constant (Ki) came out at 764 nM.

With `O=c1cc(-c2ccc(O)cc2)oc2ccccc12`, the IC50 in test [13] was 1500 nM; in test [9] it was 304 nM.

Compound `CCOc1ccc(Cc2nc3cc(O)ccc3n2CCC(C)C)cc1` displayed an Activity in [1] of 19%. For the same compound, the results for the 50% inhibitory concentration (IC50) in test [5] and in test [8] were 5530 nM and greater than 25100 nM, respectively.

For `CCN(CC)C(=O)c1ccc2c(c1)nc(Cc1ccc(OC(=O)NC3CC3)cc1)n2CCC(C)C`, the Activity was 32% in test [1] and 50% in [14] (filed as agonist). The IC50 in test [7] was 70 nM and 79.4 nM; in test [8] it was greater than 25100 nM.

`CCN(CC)C(=O)c1ccc2c(c1)nc(Cc1ccc(OC(=O)NC)cc1)n2CCC(C)C` gave an Activity in test [14] of 33%.

As to `CCN(CC)C(=O)c1ccc2c(c1)nc(Cc1ccc(OC(=O)N(C)Cc3ccccc3)cc1)n2CCC(C)C`, the Activity in test [1] (filed as agonist) is 51%. Moreover, the values for the IC50 in test [5], in [7] and in test [8] were 2600 nM, 390 nM and 9010 nM, respectively.

The compound `CCOc1ccc(Cc2nc3cc(OC(=O)N(C)C)ccc3n2CCC(C)C)cc1` registered an Activity in test [1] (filed as agonist) of 57%. Besides, the IC50 is 1190 nM in test [5], greater than 25100 nM in test [7] and greater than 25100 nM in test [8].

In turn, `CC(C)(C)OC(=O)NCCOCCOc1ccc(-c2cc(=O)c3ccccc3o2)cc1` came in with an IC50 in test [9] of 2 nM. This compound also registered a Ki in test [10] of 4500 nM.

In turn, `CCCN(C)C(=O)Oc1ccc(Cc2nc3cc(C(=O)N(CC)CC)ccc3n2CCC(C)C)cc1` displayed an Activity in [1] (filed as agonist) of 46%. Moreover, the results for the IC50 in [7] and in [8] were 1060 nM and greater than 25100 nM, respectively.

Consider `CCN(CC)C(=O)Oc1ccc(Cc2nc3cc(C(=O)N(CC)CC)ccc3n2CCC(C)C)cc1`, for which the Activity in test [1] (filed as agonist) was 43%; in test [14], less than 10%. Moreover, the IC50 in test [7] was 4220 nM; in [8] it was greater than 25100 nM.

`CCN(CC)C(=O)c1ccc2c(c1)nc(Cc1ccc(O)cc1)n2CCC(C)C` registered an Activity in test [1] of 10%. Besides, the IC50 in test [5] is 2210 nM; in test [7] it was greater than 25100 nM.

Turning to `O=c1cc(-c2ccc(O)cc2)oc2cccc(OCc3ccccc3)c12`, the values for the IC50 in test [13] and in test [9] were 711 nM and 6.9 nM, respectively.

Regarding `Cc1c(C(=O)NN2CCCCC2)nn(-c2ccc(Cl)cc2Cl)c1-c1ccc(Cl)cc1`, the Activity in test [14] was less than 10%.

Consider `CCN(CC)C(=O)c1ccc2c(c1)nc(Cc1ccccc1)n2CCC(C)C`, for which the concentration for half-maximal inhibition (IC50) in test [13] is 3800 nM; in test [9] it was 6.4 nM; in [7] it was 50 nM; in [8], greater than 25100 nM.

On to `CCNC(=O)Oc1ccc(Cc2nc3cc(C(=O)N(CC)CC)ccc3n2CCC(C)C)cc1`, for which the Activity in [1] was 37%; in [14], 19%. The IC50 in test [7] is 810 nM; in [8], greater than 25100 nM.

Regarding `CCN(C)C(=O)Oc1ccc(Cc2nc3cc(C(=O)N(CC)CC)ccc3n2CCC(C)C)cc1`, the Activity in test [1] (filed as agonist) was 40%. Besides, the concentration for half-maximal inhibition (IC50) in [5] was 11000 nM; in [7] it was 330 nM; in test [8] it was greater than 25100 nM.

With `CCOc1ccc(Cc2nc3cc(OC(=O)N(C)CC)ccc3n2CCC(C)C)cc1`, in test [1] (filed as agonist), the Activity was 80%. The values for the IC50 in [5], in test [7] and in test [8] were 580 nM, 2900 nM and greater than 25100 nM, respectively.

Turning to `CCOc1ccc(Cc2nc3cc(OC(=O)N4CCC4)ccc3n2CCC(C)C)cc1`, the Activity in [1] (filed as agonist) came out at 41%. Besides, the EC50 in [2] came out at 42.6 nM; in test [3], 1300 nM. Further, the half-maximal inhibitory concentration (IC50) was 1020 nM in test [5], 150 nM in test [7] and greater than 25100 nM in test [8]. Besides, the Emax in test [6] (filed as agonist) stood at 68%.

Compound `CC(C)(C)OC(=O)NCCOCCOc1ccc(-c2cc(=O)c3c(OCc4ccccc4)cccc3o2)cc1` displayed an IC50 in [9] of 1780 nM. Further, the Ki in [10] was determined as 2000 nM.

Regarding `CCOc1ccc(Cc2nc3cc(OC(=O)N4CCCC4)ccc3n2CCC(C)C)cc1`, the Activity in test [1] (filed as agonist) was 49%. For the same compound, the IC50 is 1520 nM in [5]; 3580 nM and 3160 nM in [7]; greater than 25100 nM in [8].

Values taken from ChEMBL document CHEMBL5338756, “Dual-Acting Small Molecules: Subtype-Selective Cannabinoid Receptor 2 Agonist/Butyrylcholinesterase Inhibitor Hybrids Show Neuroprotection in an Alzheimer's Disease Mouse Model” (J Med Chem, 2023).
